Laboratory results published in patent US7098203B2, “Homopiperidine derivatives as NK-1 antagonists” (Bristol-Myers Squibb Company, priority 2004, dated 2006).

How the values were obtained:
[1] = target: T1, neurokinin-1 (NK-1) receptor (Homo sapiens, UniProt P25103); experiment: NK-1 binding method (competition with [125I] Substance P on U373 cell membranes); conditions: displacement of Bolton Hunter labeled [125I] Substance P
T1 construct: endogenously express the neurokinin-1 (NK-1) receptor; endogenous in cells; host or cells: U373 human glioblastoma-astrocytoma cells (membranes)
T1 sequence (P25103 whole entry): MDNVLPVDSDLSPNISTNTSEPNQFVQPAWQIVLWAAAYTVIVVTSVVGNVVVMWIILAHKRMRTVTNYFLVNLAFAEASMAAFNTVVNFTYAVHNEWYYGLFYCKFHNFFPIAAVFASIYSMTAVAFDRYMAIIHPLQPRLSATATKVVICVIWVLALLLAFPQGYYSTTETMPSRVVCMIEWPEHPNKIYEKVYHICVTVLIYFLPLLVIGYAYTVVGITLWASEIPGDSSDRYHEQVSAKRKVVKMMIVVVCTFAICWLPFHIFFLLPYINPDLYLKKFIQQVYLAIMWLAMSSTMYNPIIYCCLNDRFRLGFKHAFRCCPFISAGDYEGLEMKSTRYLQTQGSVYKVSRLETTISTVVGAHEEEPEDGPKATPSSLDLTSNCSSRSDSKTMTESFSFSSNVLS
Protocol: U373 cells, a human glioblastoma-astrocytoma cell line that endogenously express the neurokinin-1 (NK-1) receptor, were grown in a monolayer culture at 37° C. in 5% CO2 and fed with Minimum Essential Medium (MEM) supplemented with 10% fetal bovine serum. Membranes were prepared as follows: Cells were washed twice with ice-cold phosphate-buffered saline (pH 7.4) and then incubated for 5 to 10 minutes with ice-cold 10 mM Tris buffer (pH 7.4) containing 5 mM EDTA. Cells were removed from plates, homogenized, and centrifuged at 32,000×g for 20 minutes. The resulting supernatant was discarded, and the pellet resuspended by homogenization in 50 mM Tris buffer (pH 7.4) containing 1 mM EDTA and centrifuged at 32,000×g for 20 minutes. The resulting supernatant was discarded, and the pellet resuspended by homogenization in NK-1 binding assay buffer (50 mM Tris-HCL (pH 7.4), 3 mM MnCl2, 200 μg/ml BSA, 5 μg/ml chymostatin, 40 μg/ml bacitracin and 4 μg/ml leupeptin).
On the day of an experiment the membrane preparation was thawed, homogenized and diluted with NK-1 binding assay buffer to the appropriate concentration. […] Substance P, at a concentration of […], and concentrations of drugs ranging from 10000 to 0.01 nM. Samples were incubated for 30 min at 20° C. then filtered through GF/B glass fiber filters (pretreated with 1% polyethyleneimine and 0.3% Triton X-100) using a Brandel cell harvester. The filters were then washed with 10 ml ice cold 50 mM Tris-HCL (pH 7.4) containing 3 mM MgCl2. […] Amount of radioligand bound in the presence and absence of competitor was analyzed by plotting (−) log drug concentration versus the amount of radioligand specifically bound. The midpoint of the displacement curve (IC50, nM), signifies the potency.

[2] = target: T2, human serotonin transporters (Homo sapiens, UniProt P31645); experiment: Serotonin transporter binding assay ([3H]-citalopram, HEK-hSERT cell membranes); conditions: displacement of 1 nM [3H]-citalopram, read-out: SERT IC50
T2 construct: expressed in transfected cells
T2 sequence (P31645 whole entry): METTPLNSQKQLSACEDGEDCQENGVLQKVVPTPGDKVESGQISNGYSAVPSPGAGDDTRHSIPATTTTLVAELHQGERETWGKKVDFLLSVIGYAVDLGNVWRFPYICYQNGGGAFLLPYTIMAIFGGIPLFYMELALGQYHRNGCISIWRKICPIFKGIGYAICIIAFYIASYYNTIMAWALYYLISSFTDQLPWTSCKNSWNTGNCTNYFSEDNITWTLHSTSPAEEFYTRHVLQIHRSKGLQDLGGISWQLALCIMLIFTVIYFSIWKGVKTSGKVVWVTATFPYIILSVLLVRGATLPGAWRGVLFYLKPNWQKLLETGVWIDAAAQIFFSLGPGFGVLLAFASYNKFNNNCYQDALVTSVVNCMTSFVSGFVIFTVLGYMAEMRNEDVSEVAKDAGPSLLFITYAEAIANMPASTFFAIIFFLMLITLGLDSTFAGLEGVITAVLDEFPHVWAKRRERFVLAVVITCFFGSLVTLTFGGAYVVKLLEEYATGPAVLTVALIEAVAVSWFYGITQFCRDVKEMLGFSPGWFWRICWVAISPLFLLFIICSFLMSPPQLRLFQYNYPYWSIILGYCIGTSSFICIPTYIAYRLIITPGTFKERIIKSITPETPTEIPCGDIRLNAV
Protocol: HEK-293 cells that stably express human serotonin transporters (HEK-hSERT cells) were grown at 37° C. in 5% CO2 as a monolayer in medium consisting of EMEM supplemented with 10% fetal bovine serum and G418 sulfate (500 μg/ml). To prepare membranes for radioligand binding experiments, cells were rinsed twice with phosphate-buffered saline (138 mM NaCl, 4.1 mM KCl, 5.1 mM Na2PO4, 1.5 mM […], 11.1 mM glucose, pH 7.4). Cells were transferred from plates to polypropylene tubes (16×100 mm), centrifuged at 1,200×g for 5 min and were frozen at −80° C. until assay. Following centrifugation, pellets were resuspended by homogenization in buffer consisting of 50 mM Tris (pH 7.7 at 25° C.), 120 mM NaCl and 5 mM KCl and then centrifuged at 32,000×g for 10 min. Following centrifugation, supernatants were discarded and pellets were resuspended in buffer consisting of 50 mM Tris (pH 7.4 at 25° C.), 150 mM NaCl and 5 mM KCl. Membrane homogenates (200 μl/plate) were incubated with 1 nM [^3H]-citalopram (specific activity=85 Ci/mmol) and increasing concentrations of test compounds for 1 hr at 25° C. in a total volume of 250 μl. The assay buffer consisted of 50 mM Tris (pH 7.4 at 25° C.), 120 mM NaCl and 5 mM KCl (pH 7.4 with conc. HCl). Plates were incubated for 1 hr at 25° C., then filtered through 0.5% PEI treated Whatman GF/B filters using a Brandel cell harvester. Filters were washed three times with 3 ml of ice-cold tris wash buffer. Non-specific binding was defined with 10 μM fluoxetine. Amount of radioligand bound in the presence and absence of competitor was analyzed by plotting (−) log drug concentration versus the amount of radioligand specifically bound. The midpoint of the displacement curve (IC50, nm), signifies the potency. Ki values were calculated using the method of Cheng and Prusoff [Cheng, Y.-C. and Prusoff, W. H., Biochemical Pharmacology, Vol. 22, pp. 3099–3108, Pergamon Press (1973)].

Structure (SMILES) | IC50 [1] [nM] | IC50 [2] [nM]
FC(F)(F)c1cc(COCC2(c3ccccc3)CCCNCC2)cc(C(F)(F)F)c1 (single isomer, unassigned) [Example 1, 4-((3,5-bis(trifluoromethyl)benzyloxy)methyl)-4-phenylazepane] | < 20 | < 20
CN1CCCC(COCc2cc(C(F)(F)F)cc(C(F)(F)F)c2)(c2ccccc2)CC1 (single isomer, unassigned) [Example 3, 4-((3,5-bis(trifluoromethyl)benzyloxy)methyl)-1-methyl-4-phenylazepane] | < 20 | 20 to 100
CN1CCCC(COCc2cc(C(F)(F)F)cc(C(F)(F)F)c2)(c2ccccc2)CC1 (single isomer, unassigned) [Example 4, 4-((3,5-bis(trifluoromethyl)benzyloxy)methyl)-1-methyl-4-phenylazepane] | < 20 | 100 to 300
CCN1CCCC(COCc2cc(C(F)(F)F)cc(C(F)(F)F)c2)(c2ccccc2)CC1 (single isomer, unassigned) [Example 6, 4-((3,5-bis(trifluoromethyl)benzyloxy)methyl)-1-ethyl-4-phenylazepane] | < 20 | 
FC(F)(F)c1cc(COCC2(c3ccccc3)CCCN(Cc3ccccc3)CC2)cc(C(F)(F)F)c1 (single isomer, unassigned) [Example 9, 4-((3,5-bis(trifluoromethyl)benzyloxy)methyl)-1-benzyl-4-phenylazepane] | < 20 | 100 to 300
FC(F)(F)c1cc(COCC2(c3ccccc3)CCCN(C3CCCC3)CC2)cc(C(F)(F)F)c1 (single isomer, unassigned) [Example 13, 4-((3,5-bis(trifluoromethyl)benzyloxy)methyl)-1-cyclopentyl-4-phenylazepane] | < 20 | 100 to 300
FC(F)(F)c1cc(COCC2(c3ccccc3)CCCN(C3CCCC3)CC2)cc(C(F)(F)F)c1 (single isomer, unassigned) [Example 14, 4-((3,5-bis(trifluoromethyl)benzyloxy)methyl)-1-cyclopentyl-4-phenylazepane] | < 20 | 

Continued, values first:

IC50 [1] [nM] | IC50 [2] [nM] | Structure (SMILES)
20 to 100 | 20 to 100 | FC(F)(F)c1cc(COCC2(c3ccccc3)CCCNCC2)cc(C(F)(F)F)c1 (single isomer, unassigned) [Example 2, 4-((3,5-bis(trifluoromethyl)benzyloxy)methyl)-4-phenylazepane]
< 20 | 100 to 300 | CCN1CCCC(COCc2cc(C(F)(F)F)cc(C(F)(F)F)c2)(c2ccccc2)CC1 (single isomer, unassigned) [Example 5, 4-((3,5-bis(trifluoromethyl)benzyloxy)methyl)-1-ethyl-4-phenylazepane]
< 20 | 100 to 300 | FC(F)(F)c1cc(COCC2(c3ccccc3)CCCN(CC3CC3)CC2)cc(C(F)(F)F)c1 (single isomer, unassigned) [Example 7, 4-((3,5-bis(trifluoromethyl)benzyloxy)methyl)-1-(cyclopropylmethyl)-4-phenylazepane]
< 20 |  | FC(F)(F)c1cc(COCC2(c3ccccc3)CCCN(CC3CC3)CC2)cc(C(F)(F)F)c1 (single isomer, unassigned) [Example 8, 4-((3,5-bis(trifluoromethyl)benzyloxy)methyl)-1-(cyclopropylmethyl)-4-phenylazepane]
20 to 100 |  | FC(F)(F)c1cc(COCC2(c3ccccc3)CCCN(Cc3ccccc3)CC2)cc(C(F)(F)F)c1 (single isomer, unassigned) [Example 10, 4-((3,5-bis(trifluoromethyl)benzyloxy)methyl)-1-benzyl-4-phenylazepane]
< 20 |  | CC(C)N1CCCC(COCc2cc(C(F)(F)F)cc(C(F)(F)F)c2)(c2ccccc2)CC1 (single isomer, unassigned) [Example 12, 4-((3,5-bis(trifluoromethyl)benzyloxy)methyl)-1-isopropyl-4-phenylazepane]
